Patent US8048872B2, “Treatment of hyperproliferative diseases with vinca alkaloid N-oxide and analogs” (Stat of Oregon Acting by and Through The Oregon State Board …, priority 2006, dated 2011)
Several values for one entry are separate records, joined by “and”; a condition that tells them apart may be missing. Identical values can stand only once. Like-named read-outs stand apart in the source and are kept apart here.

Experiments:
[1] = tested on: Human H460 lung adenocarcinoma tumor cells
Procedure: Cells were exposed with gentle rocking to a constant level of low oxygen (0.2% O2-5% CO2-balance N2) in a hypoxia apparatus (INVIVO2400 Hypoxia Workstation, Ruskin Technology) for 12 hr at 37° C. Identically treated cells were incubated under normoxia (air-5% CO2) at 37° C. Cells were harvested and lysed in DNA lysis buffer (20 mM Tris-HCL, pH 8.0, 1 mM EDTA, 0.1% Triton X-100) and stored at −80° C. for analysis of DNA content and LC/MS/MS analysis. […] Lysates were mixed with 150 ml of methanol containing 0.1% acetic acid and vinca alkaloid internal standard, and vortexed for 10 min, and centrifuged for 5 min at 18000 g. Clarified supernatants were transferred to HPLC vials fitted with glass inserts and analyzed by LC-MS/MS. Chromatography was performed on an Acquity HPLC system fitted with an Acquity BEH C18 column, and used 0.1% (v:v) formic acid in water for mobile phase A, and 0.1% (v:v) formic acid in acetonitrile for mobile phase B. Mass spectral analysis was performed using a Micromass Quattro Micro triple quadupole mass spectrometer.
The amounts of each compound were calculated from standard curves.

[2] = tested on: H460 lung carcinoma tumor cells; format: cell-based, human
[3] = tested on: human HL60 promyelocytic leukemia cells; details: in vivo
[4] = tested on: multiple human solid tumor cell lines; assay: Hypoxia-induced cytotoxicity across cell lines (HCR range); format: cell-based
Procedure: (§1) Tumor cell line were cultured in DMEM-10% FBS under standard conditions. One-hundred mm plastic culture dishes were seeded with 1×10^6 tumor cells and treated with vinca alkaloids or N-oxide analogs at a dose range of 0.01-100 nM. Cells were exposed with gentle rocking to a constant level of low oxygen (0.2% O2-5% CO2-balance N2) in a hypoxia apparatus (INVIVO2400 Hypoxia Workstation, Ruskin Technology) for 14 hr at 37° C. Identically treated cells were incubated under normoxia (air-5% CO2) at 37° C. Cells were harvested and replated in fresh medium at a density of 1×10^3 cells/well in 48-well plastic culture plates to assess viability 24-72 hr later. Briefly, Alamar Blue was added to replicate wells on Day 0 and Day 3, and cells were incubated for a further 3-6 hr at 37° C. before fluorescence readings using a plate reader (530-560 nm excitation, 590 emission). The percent inhibition of proliferation was calculated and plotted against control-treated cells at each drug concentration. […] The Hypoxia Cytotoxicity Ratio (HCR) was determined as the ratio of the IC50 of the compound under normoxic conditions vs. hypoxic conditions.

[5] = mouse, in vivo
Procedure: Body weights were monitored twice weekly and up to 2 weeks following treatment. Mice were also injected ip with 4 or 6 mg/kg vinblastine using the same q3d×5 schedule as a positive control.

[6] = tested on: human K562 myelogenous leukemia cells; assay: in vivo
Procedure: In one example, female nude mice (n=10) were inoculated subcutaneously with 15×10^6 human K562 myelogenous leukemia cells in a 1:1 ratio with matrigel on the right flank. Tumor volumes were monitored and calculated using the formula: Tumor volume=(a^2×b/2) where ‘a’ is the smallest diameter and ‘b’ is the largest diameter. Once the established tumors reached approximately 75-150 mm^3 (individual tumor volumes may range from […]) the mice were assigned to the various vehicle control and treatment groups such that the mean tumor volumes in the treated groups were within 10% of the mean tumor weight in the vehicle control group. On the same day (day 1) and days 4, 7, 10, and 13, vinca-alkaloid N-oxide analogs (VCR-NO, VBL-NO) were administered intravenously according to a q3d×5 schedule. Mice were also treated with vehicle (negative control) and the standard agents, vinblastine and vincristine (positive controls). Tumor volumes were recorded three times a week starting when tumors were palpable and including the day of study termination. Animals were monitored for signs of toxicity and body weights were recorded twice a week starting on the first day of treatment and including the day of study termination. […] The mean day of sacrifice were calculated to determine the tumor growth delay and tumor growth inhibition effects of each test article as compared to vehicle control. […] Statistical significance between the treated vs. control groups was evaluated by logrank analysis.

[7] = tested on: human H460 lung adenocarcinoma cells
Procedure: Human H460 lung adenocarcinoma tumor cells were cultured in DMEM-10% FBS under standard conditions. One-hundred mm plastic culture dishes were seeded with 1×10^6 tumor cells/dish and treated with vinca alkaloids or N-oxide analogs at a 0.01-100 nM dose range. Cells were exposed with gentle rocking to a constant level of low oxygen (0.2, 1% or 5% O2-5% CO2-balance N2) in a hypoxia apparatus (INVIVO2400 Hypoxia Workstation, Ruskin Technology) for 14 hr at 37° C. Identically treated cells were incubated under normoxia (air-5% CO2) at 37° C. Cells were harvested and replated in fresh medium at a density of 1×10^3 cells/well in 48-well plastic culture plates to assess viability 24-72 hr later. Briefly, Alamar Blue was added to replicate wells on Day 0 and Day 3, and cells were incubated for a further 3-6 hr at 37° C. before fluorescence readings using a plate reader (530-560 nm excitation, 590 emission). The percent inhibition of proliferation was calculated and plotted against control-treated cells at each drug concentration. […] The Hypoxia Cytotoxicity Ratio (HCR) was defined as ((IC50 in Hypoxia)/(IC50 in Normoxia)).

[8] = tested on: FaDU head and neck tumor cell lines
Procedure: as §1

[9] = tested on: A549 non-small cell lung carcinoma
Procedure: as §1

[10] = mouse, in vivo; remark: listed apart in the source
Procedure: Body weights were monitored twice weekly and up to 2 weeks following treatment. Mice were also injected iv with 0.6 or 1 mg/kg vincristine using the same q3d×5 schedule as a positive control.

[11] = tested on: murine P388 leukemic tumor cells; assay: in vivo; details: mouse, in vivo
Procedure: For example, B6D2F1 mice (n=8/group) were inoculated subcutaneously (sc) in the right flank with 1×10^6 murine L1210 leukemic tumor cells. […] Test agents were administered on multiple treatment regimen (q3d×5) to yield optimal dose schedule benefit. Vehicle control treated mice served as the negative control group; mice treated with the bioreduced parent compounds, vincristine and vinblastine, dosed at their […] (MTDs), served as the positive control groups. Tumors were measured with calipers twice weekly and tumor volume calculated using the formula: Tumor Volume (mm^3)=((width)^2×length)/2. Animals were monitored for signs of toxicity and weighed daily for the first 5 days of the study and then twice-weekly until the study end. As pre-defined in the protocol, each animal was actively euthanized when its tumor reached the pre-determined endpoint size of 2000 mm^3 or at the conclusion of the study (day 37) whichever came first. The time to endpoint (TTE) was calculated for each mouse as TTE (days)=(log10(endpoint volume mm^3)−b)/m where b is the intercept and m is the slope of the line obtained by linear regression of a log-transformed tumor growth data set. Treatment outcome was determined from tumor growth delay (TGD) which is defined as the increase in median TTE in a treatment (T) group as compared to the control (C) group (TGD=T−C) expressed in days or as a percentage of the median TTE of the control group % TGD=((T−C)/C)×100. […] Statistical significance between the treated vs. control groups was evaluated by logrank analysis.
This model was developed by subcutaneously inoculating B6D2F1 mice (n=8/group) with 1×10^6 murine P388 leukemic tumor cells using similar methodology to that described above for L1210. […] Agents were administered on multiple treatment regimen (q3d×5) to yield optimal dose schedule benefit. Efficacy of treatment with the N-oxide analogs was determined by Tumor Growth Delay (TGD) and Kaplan-Meier survival analysis as described for L1210, the exception being that the conclusion of the study was day 45 or the predefined endpoint size of 2000 mm^3 whichever came first. Vehicle control treated mice served as the negative control group; mice treated with the standard agents, vincristine and vinblastine, dosed at their MTDs, served as the positive control groups.

[12] = tested on: human HT29 colorectal adenocarcinoma; set-up: species or system mouse; details: in vivo

Procedure for SiHa: as §1

SMILES: CC[C@]1(O)C[C@H]2C[C@](C(=O)OC)(c3cc4c(cc3OC)N(C)[C@H]3[C@@](O)(C(=O)OC)[C@H](OC(C)=O)[C@]5(CC)C=CCN6CC[C@]43[C@@H]65)c3[nH]c4ccccc4c3CC[N@+]([O-])(C2)C1 [Vinblastine N-oxide, Vinblastine N′b-Oxide]
- bioreduction to parent compound [1]: bioreduced to vinblastine under hypoxia exposure
- Hypoxia Cytotoxicity Ratio [2]: ~20
- IC50 inhibitory activity after activation under hypoxia [2]: low nanomolar
- Tumor Growth Inhibition [3]: 91% and 94%
- HCR values [4]: 3-21
- body weight loss / gross symptoms of toxicity [5]: no evidence of significant body weight loss or gross symptoms of toxicity
- Tumor Growth Inhibition [6]: 77% and 89%
- cytotoxicity vs oxygen concentration [7]: Increased cytotoxicity
- Hypoxia Cytotoxicity Ratio (HCR) [8]: 7.5
- Hypoxia Cytotoxicity Ratio (HCR) (SiHa): 4.3

SMILES: CC[C@]1(O)C[C@@H]2C[C@](C(=O)OC)(c3cc4c(cc3OC)N(C=O)[C@H]3[C@@](O)(C(=O)OC)[C@@H](OC(C)=O)[C@]5(CC)C=CCN6CC[C@]43[C@@H]65)c3[nH]c4ccccc4c3CC[N@+]([O-])(C2)C1 [Vincristine N-oxide, Vincristine N′b-Oxide]
- Hypoxia Cytotoxicity Ratio (HCR) [9]: 11.2
- bioreduction to parent compound [1]: bioreduced to vincristine under hypoxia exposure
- body weight loss / gross symptoms of toxicity [10]: no evidence of significant body weight loss or gross symptoms of toxicity
- Tumor Growth Inhibition [3]: 94% and 96%
- HCR values [4]: 5-25
- Tumor Growth Delay [11]: 76% and 54%
- Tumor Growth Inhibition [6]: 69% and 84% and 60%
- Hypoxia Cytotoxicity Ratio (HCR) [8]: 6
- Tumor Growth Delay [12]: 42%
